# According to US20130156728A1, “COMPOSITION FOR NEUROLOGICAL OR AUTOIMMUNE DISEASES” (National Institutes of Health (NIH), U.S. Dept. of Health …, priority 2010, published 2013):
# Tests used:
# mice = assay: Characterization of subacute MPTP model (striatal dopamine, splenocyte counts); assay type: in vivo, mouse
# Method: To establish a subacute MPTP model, we tested administration of 10 mg/kg/day and 20 mg/kg/day MPTP for consecutive 5 days.
# Data are represented as mean±SEM.
# [1] = system: mouse models of Alzheimer's disease; conditions: without adjuvant; cited from earlier work
# chronic MPTP model = assay: Vaccination in chronic MPTP model (striatal DA and DAT); assay type: in vivo, C57BL/6 mice
# [2] = system: humans with type 1 diabetes; conditions: injections; cited from earlier work
compound,measurement,setting,value
"CN1CC=C(c2ccccc2)CC1 [MPTP, 1-Methyl-4-Phenyl-1,2,3,6-Tetrahydro-Pyridine]",effect on striatal dopamine levels,"mice; 10 mg/kg/day MPTP for 5 days, four days after the last treatment",no obvious effect
same,decrease of striatal dopamine level compared to PBS treated mice,"mice; 20 mg/kg/day MPTP for 5 days, four days after the last treatment",70%
same,effect on splenocyte counts (immunotoxicity),"mice; subacute MPTP, 10 and 20 mg/kg/day for 5 days",did not affect
glatiramer acetate [Copaxone (without adjuvant)],effect in mouse models of Alzheimer's disease,[1],beneficial
same,protection of striatal dopamine (DA) and dopamine transporter (DAT),chronic MPTP model,no protective effect
"GAD65: isoform of glutamic acid decarboxylase, 65 kDa",preservation of some insulin production,[2],30 months
